# Results taken from publication PMC5218480 (PLoS ONE, 2017).
# Test system: MV-4-11 cells
# Experiment: Gene expression microarray analysis (Affymetrix PrimeView) and GSEA
# Assay type: cell-based, human
# Design: RFU PODN (11730768_x_at) / Fold change /veh PODN (11730768_x_at) / RFU LINC00158 (11744669_a_at) / Fold change /veh LINC00158 (11744669_a_at) / RFU DUSP10 (11751237_a_at) / Fold change /veh DUSP10 (11751237_a_at) / RFU ID3 (11757404_x_at) / Fold change /veh ID3 (11757404_x_at) / RFU PLEKHG5 (11737974_s_at) / Fold change /veh PLEKHG5 (11737974_s_at) / RFU LRRC4B (11730491_at) / Fold change /veh LRRC4B (11730491_at) / RFU GIMAP4 (11747438_a_at) / Fold change /veh GIMAP4 (11747438_a_at) / RFU KRT8 (11758183_x_at) / Fold change /veh KRT8 (11758183_x_at) / RFU CNN1 (11734310_a_at) / Fold change /veh CNN1 (11734310_a_at) / RFU VPS37D (11726825_at) / Fold change /veh VPS37D (11726825_at) / RFU C10orf10 (11716522_x_at) / Fold change /veh C10orf10 (11716522_x_at) / RFU KIR2DL2 /// KIR2DL4 /// KIR2DL5A /// KIR2DL5B /// KIR2DS1 /// KIR2DS2 /// KIR2DS3 /// KIR2DS4 /// KIR3DL3 /// KIR3DL3 /// KIR3DS1 (11738374_at) / Fold change /veh KIR2DL2 /// KIR2DL4 /// KIR2DL5A /// KIR2DL5B /// KIR2DS1 /// KIR2DS2 /// KIR2DS3 /// KIR2DS4 /// KIR3DL3 /// KIR3DL3 /// KIR3DS1 (11738374_at) / RFU C1QL1 (11718748_at) / Fold change /veh C1QL1 (11718748_at) / RFU TMPRSS4 (11747572_a_at) / Fold change /veh TMPRSS4 (11747572_a_at) / RFU HAMP (11756126_x_at) / Fold change /veh HAMP (11756126_x_at) / RFU RNFT2 (11725882_a_at) / Fold change /veh RNFT2 (11725882_a_at) / RFU NR4A2 (11747474_a_at) / Fold change /veh NR4A2 (11747474_a_at) / RFU ABCC12 (11746883_a_at) / Fold change /veh ABCC12 (11746883_a_at) / RFU TMEM136 (11760407_x_at) / Fold change /veh TMEM136 (11760407_x_at) / RFU CLDN22 /// WWC2 (11732394_at) / Fold change /veh CLDN22 /// WWC2 (11732394_at) / RFU HLA-DPB1 (11760878_x_at) / Fold change /veh HLA-DPB1 (11760878_x_at) / RFU SPINT1 (11716480_a_at) / Fold change /veh SPINT1 (11716480_a_at) / RFU GAP43 (11754022_s_at) / Fold change /veh GAP43 (11754022_s_at) / RFU A4GNT (11735810_at) / Fold change /veh A4GNT (11735810_at) / RFU PRB3 (11715151_x_at) / Fold change /veh PRB3 (11715151_x_at) / RFU TUBB4B (11761932_at) / Fold change /veh TUBB4B (11761932_at) / RFU CAPN14 (11732068_a_at) / Fold change /veh CAPN14 (11732068_a_at) / RFU TMCC2 (11721928_a_at) / Fold change /veh TMCC2 (11721928_a_at) / RFU IRGQ (11745062_a_at) / Fold change /veh IRGQ (11745062_a_at) / RFU FAM174B (11720279_a_at) / Fold change /veh FAM174B (11720279_a_at) / RFU TMPRSS4 (11748680_a_at) / Fold change /veh TMPRSS4 (11748680_a_at) / RFU FAM212B (11763350_a_at) / Fold change /veh FAM212B (11763350_a_at) / RFU PLEKHG5 (11743358_a_at) / Fold change /veh PLEKHG5 (11743358_a_at) / RFU ZSCAN30 (11745921_a_at) / Fold change /veh ZSCAN30 (11745921_a_at) / RFU CMKLR1 (11741424_a_at) / Fold change /veh CMKLR1 (11741424_a_at) / RFU LOC101060620 /// MAPK8IP1 (11723275_at) / Fold change /veh LOC101060620 /// MAPK8IP1 (11723275_at) / RFU SPTSSB (11747773_x_at) / Fold change /veh SPTSSB (11747773_x_at) / RFU PRSS12 (11739890_at) / Fold change /veh PRSS12 (11739890_at) / RFU BIN1 (11741810_x_at) / Fold change /veh BIN1 (11741810_x_at) / RFU WNT11 (11732464_a_at) / Fold change /veh WNT11 (11732464_a_at) / RFU C10orf10 (11716521_a_at) / Fold change /veh C10orf10 (11716521_a_at) / RFU C5orf56 (11738089_at) / Fold change /veh C5orf56 (11738089_at) / RFU CYB561 (11721691_x_at) / Fold change /veh CYB561 (11721691_x_at) / RFU ANKRD19P (11752326_a_at) / Fold change /veh ANKRD19P (11752326_a_at) / RFU OR2T12 /// OR2T33 /// OR2T8 (11738714_s_at) / Fold change /veh OR2T12 /// OR2T33 /// OR2T8 (11738714_s_at) / RFU VCAN (11748164_a_at) / Fold change /veh VCAN (11748164_a_at) / RFU JSRP1 (11732532_at) / Fold change /veh JSRP1 (11732532_at) / RFU KRTAP10-11 (11738290_x_at) / Fold change /veh KRTAP10-11 (11738290_x_at) / RFU MYO3A (11730013_a_at) / Fold change /veh MYO3A (11730013_a_at) / RFU EBF3 (11725865_a_at) / Fold change /veh EBF3 (11725865_a_at) / RFU CAMK2N1 (11719241_x_at) / Fold change /veh CAMK2N1 (11719241_x_at) / RFU C5orf56 (11738088_a_at) / Fold change /veh C5orf56 (11738088_a_at) / RFU OLFML3 (11715873_a_at) / Fold change /veh OLFML3 (11715873_a_at) / RFU LOC100653217 /// NTM (11731650_a_at) / Fold change /veh LOC100653217 /// NTM (11731650_a_at) / RFU MAPK11 (11762145_a_at) / Fold change /veh MAPK11 (11762145_a_at) / RFU FIZ1 (11724087_x_at) / Fold change /veh FIZ1 (11724087_x_at) / RFU OASL (11726364_x_at) / Fold change /veh OASL (11726364_x_at) / RFU SOX15 (11748057_x_at) / Fold change /veh SOX15 (11748057_x_at) / RFU CD79A (11719716_a_at) / Fold change /veh CD79A (11719716_a_at) / RFU HIST1H1D (11736915_at) / Fold change /veh HIST1H1D (11736915_at) / RFU CASKIN2 (11723855_a_at) / Fold change /veh CASKIN2 (11723855_a_at) / RFU LOC730098 (11760151_x_at) / Fold change /veh LOC730098 (11760151_x_at) / RFU OR4N2 (11742367_at) / Fold change /veh OR4N2 (11742367_at) / RFU PRRT2 (11749266_a_at) / Fold change /veh PRRT2 (11749266_a_at) / RFU SNX32 (11753110_a_at) / Fold change /veh SNX32 (11753110_a_at) / RFU CDHR5 (11726645_a_at) / Fold change /veh CDHR5 (11726645_a_at) / RFU RCAN1 (11760418_a_at) / Fold change /veh RCAN1 (11760418_a_at) / RFU FAM167A (11723789_a_at) / Fold change /veh FAM167A (11723789_a_at) / RFU FAM26E (11764081_at) / Fold change /veh FAM26E (11764081_at) / RFU ISYNA1 (11749810_s_at) / Fold change /veh ISYNA1 (11749810_s_at) / RFU ACY1 (11761880_at) / Fold change /veh ACY1 (11761880_at) / RFU 11764098_at / Fold change /veh 11764098_at / RFU SAMD14 (11745864_x_at) / Fold change /veh SAMD14 (11745864_x_at) / RFU NPB (11741838_a_at) / Fold change /veh NPB (11741838_a_at) / RFU TMPRSS6 (11731388_a_at) / Fold change /veh TMPRSS6 (11731388_a_at) / RFU KRTAP10-2 (11738614_at) / Fold change /veh KRTAP10-2 (11738614_at) / RFU ARHGAP8 /// PRR5-ARHGAP8 (11727945_x_at) / Fold change /veh ARHGAP8 /// PRR5-ARHGAP8 (11727945_x_at) / RFU KRTAP5-7 /// NADSYN1 (11734609_at) / Fold change /veh KRTAP5-7 /// NADSYN1 (11734609_at) / RFU RASL12 (11751679_a_at) / Fold change /veh RASL12 (11751679_a_at) / RFU CDKN2B (11736163_a_at) / Fold change /veh CDKN2B (11736163_a_at) / RFU PRF1 (11729649_at) / Fold change /veh PRF1 (11729649_at) / RFU, ZNF638 /// ZNF638-IT1 / Fold change vs veh, ZNF638 /// ZNF638-IT1 / RFU, PANK3 / Fold change vs veh, PANK3 / RFU, SH3YL1 / Fold change vs veh, SH3YL1 / RFU, ZEB2 / Fold change vs veh, ZEB2 / RFU, NRIP1 / Fold change vs veh, NRIP1 / RFU, PTTG1IP / Fold change vs veh, PTTG1IP / RFU, CAPN2 / Fold change vs veh, CAPN2 / RFU, MED14 / Fold change vs veh, MED14 / RFU, SNORA58 / Fold change vs veh, SNORA58 / RFU, C1orf63 / Fold change vs veh, C1orf63 / RFU, LRRFIP1 / Fold change vs veh, LRRFIP1 / RFU, NDUFAF7 / Fold change vs veh, NDUFAF7 / RFU, SLC12A2 / Fold change vs veh, SLC12A2 / RFU, IBTK / Fold change vs veh, IBTK / RFU, ESF1 / Fold change vs veh, ESF1 / Fold change vs veh, TMEM50B / RFU, TAOK1 / Fold change vs veh, TAOK1 / RFU, ACBD3 / Fold change vs veh, ACBD3 / RFU, TMA16 / Fold change vs veh, TMA16 / RFU, RWDD3 / Fold change vs veh, RWDD3 / RFU, BCAT1 / Fold change vs veh, BCAT1 / RFU, EDEM3 / Fold change vs veh, EDEM3 / RFU, TMEM33 / Fold change vs veh, TMEM33 / RFU, WDR75 / Fold change vs veh, WDR75 / RFU, AHCTF1 / Fold change vs veh, AHCTF1 / RFU, TFRC / Fold change vs veh, TFRC / RFU, ZDHHC17 / Fold change vs veh, ZDHHC17 / RFU, NOM1 / Fold change vs veh, NOM1 / RFU, ARL8B / Fold change vs veh, ARL8B / RFU, ZBTB11 / Fold change vs veh, ZBTB11 / RFU, TAMM41 / Fold change vs veh, TAMM41 / RFU, KIAA1704 /// LOC100996395 / Fold change vs veh, KIAA1704 /// LOC100996395 / RFU, ING1 / Fold change vs veh, ING1 / RFU, TRMT61B / Fold change vs veh, TRMT61B / RFU, FUBP3 / Fold change vs veh, FUBP3 / RFU, TP53 / Fold change vs veh, TP53 / RFU, TNKS2 / Fold change vs veh, TNKS2 / RFU, ZFP14 / Fold change vs veh, ZFP14 / RFU, ACTR2 / Fold change vs veh, ACTR2 / RFU, PPP3R1 / Fold change vs veh, PPP3R1 / RFU, PIK3R1 / Fold change vs veh, PIK3R1 / RFU, HNRNPA1 / Fold change vs veh, HNRNPA1 / RFU, RNF170 / Fold change vs veh, RNF170 / RFU, ZNF28 / Fold change vs veh, ZNF28 / RFU, RNGTT / Fold change vs veh, RNGTT / RFU, OGT / Fold change vs veh, OGT / RFU, BRD1 / Fold change vs veh, BRD1 / RFU, MARS / Fold change vs veh, MARS / RFU, ZNF655 / Fold change vs veh, ZNF655 / RFU, FAHD1 / Fold change vs veh, FAHD1 / RFU, BDP1 / Fold change vs veh, BDP1 / RFU, LRRCC1 / Fold change vs veh, LRRCC1 / RFU, ARID1A / Fold change vs veh, ARID1A / RFU, ZNF146 / Fold change vs veh, ZNF146 / RFU, ZNF330 / Fold change vs veh, ZNF330 / RFU, GPN3 / Fold change vs veh, GPN3 / RFU, C9orf123 / Fold change vs veh, C9orf123 / RFU, N4BP2L2 / Fold change vs veh, N4BP2L2 / RFU, ARFIP1 / Fold change vs veh, ARFIP1 / RFU, FAM179B / Fold change vs veh, FAM179B / RFU, BCL10 / Fold change vs veh, BCL10 / RFU, UHRF1BP1L / Fold change vs veh, UHRF1BP1L / RFU, BET1 / Fold change vs veh, BET1 / RFU, CNOT2 / Fold change vs veh, CNOT2 / RFU, ZNF268 / Fold change vs veh, ZNF268 / Fold change vs veh, ZNF507 / RFU, DGCR2 / Fold change vs veh, DGCR2 / RFU, WDSUB1 / Fold change vs veh, WDSUB1 / Fold change vs veh, HSP90B1 /// MIR3652 / RFU, ADSS / Fold change vs veh, ADSS / RFU, GK / Fold change vs veh, GK / RFU, ZNF148 / Fold change vs veh, ZNF148 / RFU, TAF9 / Fold change vs veh, TAF9 / RFU, SLC1A5 / Fold change vs veh, SLC1A5 / RFU, SLMO2 / Fold change vs veh, SLMO2 / RFU, ABCC4 / Fold change vs veh, ABCC4 / RFU, LOC101060439 /// RAP1B / Fold change vs veh, LOC101060439 /// RAP1B / RFU, RFX7 / Fold change vs veh, RFX7 / RFU, GTPBP10 / Fold change vs veh, GTPBP10 / RFU, CNEP1R1 / Fold change vs veh, CNEP1R1 / RFU, BIVM-ERCC5 /// ERCC5 / Fold change vs veh, BIVM-ERCC5 /// ERCC5 / RFU, ILF3 / Fold change vs veh, ILF3 / RFU 11762660_at / Fold change /veh 11762660_at / RFU VCAN (11757783_s_at) / Fold change /veh VCAN (11757783_s_at) / RFU DDX43 (11728927_at) / Fold change /veh DDX43 (11728927_at) / RFU KRT8 (11758188_x_at) / Fold change /veh KRT8 (11758188_x_at) / RFU NKD1 (11759106_at) / Fold change /veh NKD1 (11759106_at) / RFU SRD5A1 (11742802_a_at) / Fold change /veh SRD5A1 (11742802_a_at) / RFU TPSAB1 /// TPSB2 (11721975_s_at) / Fold change /veh TPSAB1 /// TPSB2 (11721975_s_at) / RFU GSTM3 (11746129_a_at) / Fold change /veh GSTM3 (11746129_a_at) / RFU IL23R (11737362_x_at) / Fold change /veh IL23R (11737362_x_at) / RFU TMEM51 (11727254_a_at) / Fold change /veh TMEM51 (11727254_a_at) / RFU PIWIL2 (11732686_x_at) / Fold change /veh PIWIL2 (11732686_x_at) / RFU ORM1 (11744905_x_at) / Fold change /veh ORM1 (11744905_x_at) / RFU CCDC152 (11743942_at) / Fold change /veh CCDC152 (11743942_at) / RFU ECM1 (11717891_a_at) / Fold change /veh ECM1 (11717891_a_at) / RFU IL23R (11748794_a_at) / Fold change /veh IL23R (11748794_a_at) / RFU TNFAIP8L3 (11732012_x_at) / Fold change /veh TNFAIP8L3 (11732012_x_at) / RFU MBOAT4 (11741988_at) / Fold change /veh MBOAT4 (11741988_at) / RFU 11764193_at / Fold change /veh 11764193_at / RFU TMEM53 (11763286_at) / Fold change /veh TMEM53 (11763286_at) / RFU MAGEB2 (11727129_at) / Fold change /veh MAGEB2 (11727129_at) / RFU TMEM200A (11744735_a_at) / Fold change /veh TMEM200A (11744735_a_at) / RFU CCDC152 (11751479_a_at) / Fold change /veh CCDC152 (11751479_a_at) / RFU FAM211A (11726209_a_at) / Fold change /veh FAM211A (11726209_a_at) / RFU RGS16 (11746705_a_at) / Fold change /veh RGS16 (11746705_a_at) / RFU VCAN (11755009_s_at) / Fold change /veh VCAN (11755009_s_at) / RFU RHOB (11743442_s_at) / Fold change /veh RHOB (11743442_s_at) / RFU RGS16 (11720943_a_at) / Fold change /veh RGS16 (11720943_a_at) / RFU RGS16 (11720944_at) / Fold change /veh RGS16 (11720944_at) / RFU, VPS4B / Fold change vs veh, VPS4B / RFU, CREB1 / Fold change vs veh, CREB1 / RFU, DNAJC13 / Fold change vs veh, DNAJC13 / RFU, GNAQ / Fold change vs veh, GNAQ / RFU, CDK5R1 / Fold change vs veh, CDK5R1 / RFU, ZRANB3 / Fold change vs veh, ZRANB3 / RFU, CUL4A / Fold change vs veh, CUL4A / RFU, CCNY / Fold change vs veh, CCNY / RFU, UFL1 / Fold change vs veh, UFL1 / RFU, COG3 / Fold change vs veh, COG3 / RFU, DIAPH2 / Fold change vs veh, DIAPH2 / RFU, SKA2 / Fold change vs veh, SKA2 / RFU, AFF3 / Fold change vs veh, AFF3 / RFU, LMF1 / Fold change vs veh, LMF1 / RFU, IPO11 / Fold change vs veh, IPO11 / RFU, DFFB / Fold change vs veh, DFFB / RFU, FOXP1 / Fold change vs veh, FOXP1 / RFU, CARD8 / Fold change vs veh, CARD8 / RFU, STRN3 / Fold change vs veh, STRN3 / RFU, ADK / Fold change vs veh, ADK / RFU, RASSF2 / Fold change vs veh, RASSF2 / RFU, WIPF1 / Fold change vs veh, WIPF1 / RFU, LARP1B / Fold change vs veh, LARP1B / RFU, RASA1 / Fold change vs veh, RASA1 / RFU, RB1 / Fold change vs veh, RB1 / RFU, PPFIA1 / Fold change vs veh, PPFIA1 / RFU, MAT2A / Fold change vs veh, MAT2A / RFU, CCT5 / Fold change vs veh, CCT5 / RFU, WDR92 / Fold change vs veh, WDR92 / RFU, CUX1 / Fold change vs veh, CUX1 / RFU, TTC7A / Fold change vs veh, TTC7A / RFU, TMEM135 / Fold change vs veh, TMEM135 / RFU, DEPTOR / Fold change vs veh, DEPTOR / RFU, CPM / Fold change vs veh, CPM / RFU, DNAJB6 / Fold change vs veh, DNAJB6 / RFU, CACNA2D3 / Fold change vs veh, CACNA2D3 / RFU, DTX4 / Fold change vs veh, DTX4 / RFU, TFCP2 / Fold change vs veh, TFCP2 / RFU, GMCL1 /// GMCL1P1 / Fold change vs veh, GMCL1 /// GMCL1P1 / RFU, AEBP2 / Fold change vs veh, AEBP2 / RFU, SNHG1 /// SNORD22 /// SNORD25 /// SNORD26 /// SNORD27 /// SNORD28 /// SNORD29 /// SNORD31 / Fold change vs veh, SNHG1 /// SNORD22 /// SNORD25 /// SNORD26 /// SNORD27 /// SNORD28 /// SNORD29 /// SNORD31 / Fold change (Aza/veh), C12orf56 (ProbeSet 11735607_a_at) / Fold change (ACY-1035/veh), C12orf56 (ProbeSet 11735607_a_at) / Fold change (Aza/veh), FGFR1OP (ProbeSet 11751329_s_at) / Fold change (ACY-1035/veh), FGFR1OP (ProbeSet 11751329_s_at) / Fold change (Aza/veh), VPS36 (ProbeSet 11739960_a_at) / Fold change (ACY-1035/veh), VPS36 (ProbeSet 11739960_a_at) / RFU SYPL1 (11715823_x_at) / Fold change /veh SYPL1 (11715823_x_at) / RFU IGFBP7 (11715501_s_at) / Fold change /veh IGFBP7 (11715501_s_at) / RFU REEP3 (11722064_at) / Fold change /veh REEP3 (11722064_at) / RFU IGLL1 (11728026_x_at) / Fold change /veh IGLL1 (11728026_x_at): dose or concentration left out as unconfirmed
# Conditions: MV-4-11 cells, 48 hours
compound,measurement,value
Nc1ccc(-c2cccs2)cc1NC(=O)c1ccc2c(c1)cc(C1CC1)n2CCN1CCOCC1 [ACY-1035],RFU LOC101060620 /// MAPK8IP1 (11723275_at),10.15 RFU
